For one test, the target named is T1, fibrin clots (Homo sapiens, UniProt P02671+P02675+P02679).
T1 construct: purchased Enzyme Research Laboratories, IN (fibrinogen, alpha-thrombin); Cell Sciences, MA (plasminogen)
T1 sequence (P02671 36-629 limits assumed): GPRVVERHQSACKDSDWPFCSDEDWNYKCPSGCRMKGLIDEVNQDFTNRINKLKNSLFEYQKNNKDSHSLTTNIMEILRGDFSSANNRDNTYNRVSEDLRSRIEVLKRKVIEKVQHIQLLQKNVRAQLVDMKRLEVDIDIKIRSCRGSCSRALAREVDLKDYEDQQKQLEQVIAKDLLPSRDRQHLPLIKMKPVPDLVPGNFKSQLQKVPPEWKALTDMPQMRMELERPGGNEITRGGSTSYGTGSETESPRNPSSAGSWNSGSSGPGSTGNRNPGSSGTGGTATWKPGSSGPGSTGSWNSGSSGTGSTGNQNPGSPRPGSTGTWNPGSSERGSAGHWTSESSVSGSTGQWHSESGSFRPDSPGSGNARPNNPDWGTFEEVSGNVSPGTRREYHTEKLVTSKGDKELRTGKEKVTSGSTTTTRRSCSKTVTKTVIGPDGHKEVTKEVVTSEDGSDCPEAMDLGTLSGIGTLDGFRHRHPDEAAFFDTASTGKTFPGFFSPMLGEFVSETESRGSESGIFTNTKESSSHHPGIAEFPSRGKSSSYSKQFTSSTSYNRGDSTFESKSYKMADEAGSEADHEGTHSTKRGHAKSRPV
T1 sequence (P02675 45-491 limits assumed): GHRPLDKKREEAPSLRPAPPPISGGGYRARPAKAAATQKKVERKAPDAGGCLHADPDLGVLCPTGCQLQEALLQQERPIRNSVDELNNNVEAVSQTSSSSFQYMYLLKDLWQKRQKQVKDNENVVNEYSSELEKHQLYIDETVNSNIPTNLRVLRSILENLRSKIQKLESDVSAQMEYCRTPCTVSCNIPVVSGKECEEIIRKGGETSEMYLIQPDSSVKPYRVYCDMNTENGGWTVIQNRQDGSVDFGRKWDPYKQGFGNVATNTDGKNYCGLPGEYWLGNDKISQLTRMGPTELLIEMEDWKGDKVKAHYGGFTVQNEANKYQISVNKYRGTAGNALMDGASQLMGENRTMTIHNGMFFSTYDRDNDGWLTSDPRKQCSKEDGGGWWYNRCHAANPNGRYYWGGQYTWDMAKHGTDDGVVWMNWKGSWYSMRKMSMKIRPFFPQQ
T1 sequence (P02679 27-437 isoform P02679-2 limits assumed): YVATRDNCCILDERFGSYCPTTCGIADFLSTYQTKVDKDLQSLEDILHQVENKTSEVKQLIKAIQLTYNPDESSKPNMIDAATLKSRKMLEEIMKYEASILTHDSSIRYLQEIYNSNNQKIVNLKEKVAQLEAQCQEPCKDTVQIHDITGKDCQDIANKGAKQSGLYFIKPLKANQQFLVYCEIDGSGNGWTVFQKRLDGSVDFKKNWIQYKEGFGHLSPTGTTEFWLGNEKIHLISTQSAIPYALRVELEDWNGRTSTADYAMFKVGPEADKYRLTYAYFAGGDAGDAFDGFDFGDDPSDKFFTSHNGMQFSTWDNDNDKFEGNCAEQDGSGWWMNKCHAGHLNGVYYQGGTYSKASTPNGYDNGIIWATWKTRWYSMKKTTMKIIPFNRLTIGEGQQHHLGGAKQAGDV
Description: Microfluidic model of vascular embolism (fibrin clot lysis). The test is classed as biochemical. The conditions noted are these: t-PA 50 ng/ml; within 1 hour; 10 dyne/cm^2 in unobstructed channel. The source says: Microfluidic Models of Vascular Embolism—
Microfluidic devices with a narrowed cross-sectional area (80 μm high×0.5 mm wide s 200 mm long) were fabricated using soft lithography as described above. Fibrin clots formed as described below that were infused into the main channel lodged and obstructed the flow in these smaller channels. A solution of t-PA or t-PA coated microaggregates was infused at a flow rate corresponding to a shear stress of 10 dyne/cm^2 in an unobstructed channel. Prior to infusion of the t-PA solutions, bovine plasminogen (Cell Sciences, MA) was added to a final concentration of 2.2 μM (S. L. Diamond, Annual review of biomedical engineering 1, 427 (1999)). During the fibrinolysis process, the fibrin clots size were monitored in real-time (images acquired every 30 sec) on an inverted Zeiss microscope.
Experimental Fibrin Emboli—
Fibrin clots were formed by adding CaCl2 (20 mM) and human α-thrombin (1 units/ml final concentrations, Enzyme Research Laboratories, IN) to human fibrinogen (5 mg/ml, Enzyme Research Laboratories, IN), as previously described (J. C. Murciano et al., Nature biotechnology 21, 891 (2003) and C. K. Lam, T. Yoo, B. Hiner, Z. Liu, J. Grutzendler, Nature 465, 478 (2010)). […] The diameter of the resulting fibrin beads was determined by optical microscopy to be ˜[…].

In test [1] the test system is ex vivo whole mouse lung with fibrin emboli. The experiment in a line: Mouse pulmonary embolism model (ex vivo whole lung ventilation-perfusion). It counts as in vivo. Here is the method: Mouse Pulmonary Embolism Model—
Male 6-8 week-old C57BL/6 mice (Jackson Laboratory, Bar Harbor, Me.) were weighed and anesthetized with Avertin (200 mg/kg IP). The trachea was incised via surgical tracheotomy, and cannulated with a blunted 22G stainless steel needle tip. The lungs were subsequently ventilated at a rate of 60 breaths/min, with a Peak Inspiratory Pressure (Pip) of 10 cm H2O and a Positive End Expiratory Pressure (Peep) of 3 cm H2O with compressed air using a mouse ventilator (VCM-R, Hugo Sachs Elektroniks, Germany). Ex vivo ventilation and perfusion of the mouse lung was performed using a IL1 ex vivo mouse lung ventilation-perfusion system (Harvard Apparatus, Natick, Mass.), (D. Huh et al., Science 328, 1662 (2010)). Following initiation of mechanical ventilation, the chest was opened via thoracotomy, and heparin (100 IU) was injected into the right ventricle. […] A suture was placed around the pulmonary artery and aorta. Cannulae made from polyethylene tubing (PE90 (0.86 mm ID, 1.7 mm OD)) were placed in the pulmonary artery (PA) and left atrium (LA), and lungs were perfused with RPMI-1640 with 4% Bovine Albumin (Probumin™ Reagent Grade, Billerica, Mass.) and 0.7 g NaCl/500 mL via a roller pump (ISM 834C, Ismatec SA, Switzerland) set at a constant flow rate of 0.5 ml/min in a recirculating system with a system volume of 6 mL. Perfusate and lung temperatures were maintained at 37° C. by housing the entire ex-vivo ventilation perfusion system inside a standard cell incubator without CO2 (Forma Scientific, Ohio). Humidity was maintained in the range of 90-95%. Pulmonary arterial and venous pressures and airway flow and pressures were recorded with dedicated Type 379 vascular pressure and DLP2.5 flow and MPX Type 399/2 airway pressure transducers and TAM-A amplifiers (Hugo Sachs Elektroniks, Germany). Vascular pressures were zeroed at the mid lung level prior to each experiment and recorded using Polyview16© software (Grass Technologies, West Warwick, R.I.) running on a desktop PC running Windows XP SP2 (Microsoft Corporation, Redmond, Wash.).
Prior to injection of experimental fibrin clots (prepared as above), the measured parameters were allowed to stabilize and remain stable for a period of more than 10 minutes. A solution of fibrin clots suspended in perfusion medium was infused at a flow rate of 0.1 ml/min and mixed with the regular perfusion line entering the pulmonary artery. The fibrin clot suspension was infused until the pulmonary artery pressure increased to ˜three-fold higher than the baseline. The system was then allowed to equilibrate and remain stable for at least 10 minutes. Next, tPA-coated platelet mimetics or free soluble tPA was added to the main perfusion line and circulated through the perfusion system. As in the microfluidic device experiments, when tPA was perfused, plasminogen was added to obtain a final concentration of 2.2 μM. Pulmonary artery and vein pressures were acquired continuously during the perfusion period. At the end of each experiment, lungs were perfused with 4% paraformaldehyde, and prepared for sectioning by incubating in 4% paraformaldehyde, then sucrose and OCT. All experimental animal protocols were approved by the Institutional Animal Care and Use Committee at Children's Hospital Boston and Harvard Medical School.

Some results are limits rather than exact numbers.

Consider “tissue plasminogen activator [free t-PA]”, for which the “reduction of emboli (clot) size” value with fibrin clots is less than 5%. Also, the “dose required for similar effects on thrombolysis relative to tPA-coated platelet mimetics” value in test [1] (5000 ng/ml vs 50 ng/ml) is reported as 100 fold. In addition, the “effect on pulmonary artery pressure” value was “did not reduce the pulmonary artery pressure” in test [1] (10 times higher dose, 500 ng/ml (FIG. 5G)); “did not reduce the pulmonary artery pressure” in test [1] (tPA 50 ng/ml (FIG. 5G)); “failed to produce any significant clinical response” in test [1] (tPA 50 ng/ml (FIG. 5G), listed as soluble tPA). Besides, the “real-time pulmonary artery pressure: effect on pulmonary hypertension” value in test [1] (tPA 50 ng/ml (FIG. 5H)) is on record as “ineffective”.

For the origin of these results see patent publication US20180064780A1, “SHEAR CONTROLLED RELEASE FOR STENOTIC LESIONS AND THROMBOLYTIC THERAPIES” (PRESIDENT AND FELLOWS OF HARVARD COLLEGE, priority 2010, published 2018).
